Test results from ChEMBL document CHEMBL6109104, “Synthesis and antibacterial evaluations of novel vancomycin analogues targeting bacteria membrane to combat Gram-negative infections” (Eur J Med Chem, 2025).
Values after ≈ are worked out from the molar mass of the structure shown. Active and inactive are the calls of the source. The calls are words filed in the database; no cut-off is given here.

Assays:
[1] = system: Escherichia coli; assay: Antibacterial activity against Escherichia coli ATCC25922 incubated for 16 to 18 hrs by muller hinton broth based microplate reader analysis; assay type: functional; conditions: time 16-18 hrs
[2] = system: Escherichia coli; assay: Antibacterial activity against Escherichia coli ATCC35150 incubated for 16 to 18 hrs by muller hinton broth based microplate reader analysis; assay type: functional; conditions: time 16-18 hrs
[3] = system: Acinetobacter baumannii; assay: Antibacterial activity against Acinetobacter baumannii ATCC17978 incubated for 16 to 18 hrs by muller hinton broth based microplate reader analysis; assay type: functional; conditions: time 16-18 hrs
[4] = system: Acinetobacter baumannii; assay: Antibacterial activity against Acinetobacter baumannii ATCC19606 incubated for 16 to 18 hrs by muller hinton broth based microplate reader analysis; assay type: functional; conditions: time 16-18 hrs
[5] = system: Acinetobacter baumannii; assay: Antibacterial activity against Acinetobacter baumannii ATCC17978 infected in neutropenic thigh infection Kunming mouse model assessed as reduction in bacterial load in thigh at 20 mg/kg, sc pretreated with bacteria for 2 hrs followed by compound addition and measured after 16 hrs; assay type: functional, organism-based
[6] = Toxicity in Kunming mouse infected with Acinetobacter baumannii ATCC17978 assessed as changed in body weight at 10 to 20 mg/kg; assay type: organism-based; conditions: in vivo, dose 10-20 mg/kg
[7] = system: Staphylococcus aureus; assay: Antibacterial activity against methicillin-resistant Staphylococcus aureus USA300 incubated for 16 to 18 hrs by muller hinton broth based microplate reader analysis; assay type: functional; conditions: time 16-18 hrs
[8] = system: Staphylococcus aureus; assay: Antibacterial activity vancomycin-intermediate resistant Staphylococcus aureus incubated for 16 to 18 hrs by muller hinton broth based microplate reader analysis; assay type: functional; conditions: time 16-18 hrs
[9] = system: HEK-293T; assay: Cytotoxicity against HEK293T cells at 64 ug/ml incubated for 72 hrs by MTT assay; assay type: toxicity, cell-based; conditions: human, dose 64 µg/ml
[10] = Hemolytic activity in sheep RBC at 64 ug/ml incubated for 1 hrs by absorbance based analysis; assay type: toxicity, cell-based, Ovis aries; conditions: erythrocyte, dose 64 µg/ml
[11] = system: Acinetobacter baumannii; assay: Antibacterial activity against Acinetobacter baumannii ATCC17978 assessed as bactericidal rate by measuring bacterial count at 4 times MIC incubated for 4 hrs by muller-hinton agar based time-kill kinetics assay relative to control; assay type: functional
[12] = system: Acinetobacter baumannii; assay: Antibacterial activity against Acinetobacter baumannii ATCC17978 assessed as bactericidal rate by measuring bacterial count at 8 times MIC incubated for 4 hrs by muller-hinton agar based time-kill kinetics assay; assay type: functional, organism-based
[13] = system: Acinetobacter baumannii; assay: Antibacterial activity against Acinetobacter baumannii ATCC17978 assessed as bactericidal rate by measuring bacterial count incubated for 6 hrs by muller-hinton agar based time-kill kinetics assay; assay type: functional, organism-based
[14] = system: Cell membrane; assay: Induction of cytoplasmic membrane permeabilization in Acinetobacter baumannii ATCC17978 assessed as increase in fluorescence intensity at 16 times MIC incubated for 10 mins by SYTOX green assay
[15] = system: Cell membrane; assay: Induction of cell membrane disruption in Acinetobacter baumannii ATCC17978 assessed as increase in ROS level incubated for 30 mins by DCFH-DA probe based microplate reader analysis
[16] = system: Cell membrane; assay: Disruption of cell membrane in Acinetobacter baumannii ATCC17978 assessed as increase in DNA leakage incubated for 4 hrs by microspectrophotometer analysis
[17] = system: Cell membrane; assay: Disruption of cell membrane in Acinetobacter baumannii ATCC17978 assessed as increase in protein leakage incubated for 4 hrs by BCA assay
[18] = system: Acinetobacter baumannii; assay: Antibacterial activity against Acinetobacter baumannii ATCC17978 infected in neutropenic thigh infection Kunming mouse model assessed as reduction in bacterial load in thigh at 10 to 20 mg/kg, sc pretreated with bacteria for 2 hrs followed by compound addition and measured after 16 hrs; assay type: functional, organism-based; conditions: dose 10-20 mg/kg
[19] = system: Acinetobacter baumannii; assay: Antibacterial activity against Acinetobacter baumannii ATCC17978 incubated for 12 hrs and measured after 20 passages; assay type: functional, organism-based
[20] = system: HEK-293T; assay: Cytotoxicity against HEK293T cells at 0.5 uM incubated for 72 hrs by MTT assay relative to control; assay type: toxicity, cell-based; conditions: human
[21] = system: HEK-293T; assay: Cytotoxicity against HEK293T cells at 1.0 uM incubated for 72 hrs by MTT assay relative to control; assay type: toxicity, cell-based; conditions: human
[22] = system: Acinetobacter baumannii; assay: Antibacterial activity against Acinetobacter baumannii ATCC17978 infected in neutropenic thigh infection Kunming mouse model assessed as reduction in bacterial survival at 10 mg/kg, sc pretreated with bacteria for 2 hrs followed by compound addition and measured after 16 hrs; assay type: functional, organism-based

CN[C@H](CC(C)C)C(=O)N[C@H]1C(=O)N[C@@H](CC(N)=O)C(=O)N[C@H]2C(=O)N[C@H]3C(=O)N[C@H](C(=O)N[C@H](C(=O)O)c4cc(O)cc(O)c4-c4cc3ccc4O)[C@H](O)c3ccc(c(Cl)c3)Oc3cc2cc(c3O[C@@H]2O[C@H](CO)[C@@H](O)[C@H](O)[C@H]2O[C@H]2C[C@](C)(N)[C@H](O)[C@H](C)O2)Oc2ccc(cc2Cl)[C@H]1O [VANCOMYCIN]
MIC [1]: > 128 µg/mL
MIC [2]: > 128 µg/mL
MIC [3]: > 128 µg/mL
MIC [4]: > 128 µg/mL
Activity [5]: inactive

CCCCCCCCCCCC[N+]1(C)CCN(C(=O)[C@H]2NC(=O)[C@H]3NC(=O)[C@H](NC(=O)[C@@H]4NC(=O)[C@H](CC(N)=O)NC(=O)[C@H](NC(=O)[C@@H](CC(C)C)NC)[C@H](O)c5ccc(c(Cl)c5)Oc5cc4cc(c5O[C@@H]4O[C@H](CO)[C@@H](O)[C@H](O)[C@H]4O[C@H]4C[C@](C)(N)[C@H](O)[C@H](C)O4)Oc4ccc(cc4Cl)[C@H]3O)c3ccc(O)c(c3)-c3c(O)cc(O)cc32)CC1.[Br-] (stereo in doubt)
Activity [6]: Non-toxic
MIC [7]: 1 µg/mL
MIC [8]: 8 µg/mL
MIC [1]: 16 µg/mL
MIC [2]: 16 µg/mL
MIC [3]: 8 µg/mL
MIC [4]: 16 µg/mL
Activity [9]: Non-toxic
Activity [10]: Toxic
Activity [11]: 100%
Activity [12]: inactive
Activity [13]: Dose-dependent-effect
Activity [14]: Active
Activity [15]: Active
Activity [16]: Dose-dependent-effect
Activity [17]: Dose-dependent-effect
Activity [18]: Active
Activity [19]: Active

COc1cccc2c1C(=O)c1c(O)c3c(c(O)c1C2=O)C[C@@](O)(C(=O)CO)C[C@@H]3O[C@H]1C[C@H](N)[C@H](O)[C@H](C)O1 [DOXORUBICIN]
Activity [20]: 27.3%
Activity [21]: 85.6%

O=C(O)c1cn(C2CC2)c2cc(N3CCNCC3)c(F)cc2c1=O [CIPROFLOXACIN]
MIC [7]: 0.25 µg/mL (≈ 0.754 µM)
MIC [8]: 1 µg/mL (≈ 3.02 µM)
MIC [3]: 0.5 µg/mL (≈ 1.51 µM)
MIC [4]: 1 µg/mL (≈ 3.02 µM)
Activity [12]: Active
Activity [22]: Active

CN[C@H](CC(C)C)C(=O)N[C@H]1C(=O)N[C@@H](CC(N)=O)C(=O)N[C@H]2C(=O)N[C@H]3C(=O)N[C@H](C(=O)N[C@H](C(=O)O)c4cc(O)cc(O)c4-c4cc3ccc4O)[C@H](O)c3ccc(c(Cl)c3)Oc3cc2cc(c3O[C@@H]2O[C@H](CO)[C@@H](O)[C@H](O)[C@H]2O[C@H]2C[C@](C)(NC(=O)CCCCCCCCCCC[n+]3cccc(Br)c3)[C@H](O)[C@H](C)O2)Oc2ccc(cc2Cl)[C@H]1O.[Br-]
MIC [7]: 4 µg/mL
MIC [8]: 32 µg/mL
MIC [1]: > 128 µg/mL
MIC [2]: > 128 µg/mL
MIC [3]: > 128 µg/mL
MIC [4]: > 128 µg/mL

CN[C@H](CC(C)C)C(=O)N[C@H]1C(=O)N[C@@H](CC(N)=O)C(=O)N[C@H]2C(=O)N[C@H]3C(=O)N[C@H](C(=O)N[C@H](C(=O)O)c4cc(O)cc(O)c4-c4cc3ccc4O)[C@H](O)c3ccc(c(Cl)c3)Oc3cc2cc(c3O[C@@H]2O[C@H](CO)[C@@H](O)[C@H](O)[C@H]2O[C@H]2C[C@](C)(NC(=O)CCCCCCCCCCC[n+]3cccc(NC(=O)OC(C)(C)C)c3)[C@H](O)[C@H](C)O2)Oc2ccc(cc2Cl)[C@H]1O.[Br-]
MIC [7]: 4 µg/mL
MIC [8]: > 128 µg/mL
MIC [1]: > 128 µg/mL
MIC [2]: > 128 µg/mL
MIC [3]: > 128 µg/mL
MIC [4]: > 128 µg/mL

CCCCCCCCCCCCCCCC[N+]1(C)CCN(C(=O)[C@H]2NC(=O)[C@H]3NC(=O)[C@H](NC(=O)[C@@H]4NC(=O)[C@H](CC(N)=O)NC(=O)[C@H](NC(=O)[C@@H](CC(C)C)NC)[C@H](O)c5ccc(c(Cl)c5)Oc5cc4cc(c5O[C@@H]4O[C@H](CO)[C@@H](O)[C@H](O)[C@H]4O[C@H]4C[C@](C)(N)[C@H](O)[C@H](C)O4)Oc4ccc(cc4Cl)[C@H]3O)c3ccc(O)c(c3)-c3c(O)cc(O)cc32)CC1.[Br-] (stereo in doubt)
MIC [7]: 8 µg/mL
MIC [8]: > 128 µg/mL
MIC [1]: 64 µg/mL
MIC [2]: > 128 µg/mL
MIC [3]: > 128 µg/mL
MIC [4]: > 128 µg/mL

CCCCCCCCCCCCCC[n+]1ccc(C(=O)NCCNC(=O)[C@H]2NC(=O)[C@H]3NC(=O)[C@H](NC(=O)[C@@H]4NC(=O)[C@H](CC(N)=O)NC(=O)[C@H](NC(=O)[C@@H](CC(C)C)NC)[C@H](O)c5ccc(c(Cl)c5)Oc5cc4cc(c5O[C@@H]4O[C@H](CO)[C@@H](O)[C@H](O)[C@H]4O[C@H]4C[C@](C)(N)[C@H](O)[C@H](C)O4)Oc4ccc(cc4Cl)[C@H]3O)c3ccc(O)c(c3)-c3c(O)cc(O)cc32)cc1.[Br-] (stereo in doubt)
MIC [7]: 4 µg/mL
MIC [8]: 64 µg/mL
MIC [1]: > 128 µg/mL
MIC [2]: > 128 µg/mL
MIC [3]: > 128 µg/mL
MIC [4]: > 128 µg/mL

CCCCCCCCCCCCCC[N+]1(C)CCN(C(=O)[C@H]2NC(=O)[C@H]3NC(=O)[C@H](NC(=O)[C@@H]4NC(=O)[C@H](CC(N)=O)NC(=O)[C@H](NC(=O)[C@@H](CC(C)C)NC)[C@H](O)c5ccc(c(Cl)c5)Oc5cc4cc(c5O[C@@H]4O[C@H](CO)[C@@H](O)[C@H](O)[C@H]4O[C@H]4C[C@](C)(N)[C@H](O)[C@H](C)O4)Oc4ccc(cc4Cl)[C@H]3O)c3ccc(O)c(c3)-c3c(O)cc(O)cc32)CC1.[Br-] (stereo in doubt)
MIC [7]: 1 µg/mL
MIC [8]: 32 µg/mL
MIC [1]: 32 µg/mL
MIC [2]: 32 µg/mL
MIC [3]: 32 µg/mL
MIC [4]: 32 µg/mL

CCCCCCCCCC[N+]1(C)CCN(C(=O)[C@H]2NC(=O)[C@H]3NC(=O)[C@H](NC(=O)[C@@H]4NC(=O)[C@H](CC(N)=O)NC(=O)[C@H](NC(=O)[C@@H](CC(C)C)NC)[C@H](O)c5ccc(c(Cl)c5)Oc5cc4cc(c5O[C@@H]4O[C@H](CO)[C@@H](O)[C@H](O)[C@H]4O[C@H]4C[C@](C)(N)[C@H](O)[C@H](C)O4)Oc4ccc(cc4Cl)[C@H]3O)c3ccc(O)c(c3)-c3c(O)cc(O)cc32)CC1.[Br-] (stereo in doubt)
MIC [7]: 1 µg/mL
MIC [8]: 1 µg/mL
MIC [1]: 16 µg/mL
MIC [2]: 16 µg/mL
MIC [3]: 32 µg/mL
MIC [4]: 32 µg/mL

CN[C@H](CC(C)C)C(=O)N[C@H]1C(=O)N[C@@H](CC(N)=O)C(=O)N[C@H]2C(=O)N[C@H]3C(=O)N[C@H](C(=O)N[C@H](C(=O)O)c4cc(O)cc(O)c4-c4cc3ccc4O)[C@H](O)c3ccc(c(Cl)c3)Oc3cc2cc(c3O[C@@H]2O[C@H](CO)[C@@H](O)[C@H](O)[C@H]2O[C@H]2C[C@](C)(NC(=O)CCCCCCCCCCC[n+]3cccc(F)c3)[C@H](O)[C@H](C)O2)Oc2ccc(cc2Cl)[C@H]1O.[Br-]
MIC [7]: 4 µg/mL
MIC [8]: 64 µg/mL
MIC [1]: > 128 µg/mL
MIC [2]: > 128 µg/mL
MIC [3]: > 128 µg/mL
MIC [4]: > 128 µg/mL

CCCCCCCCCC[n+]1ccc(C(=O)NCCNC(=O)[C@H]2NC(=O)[C@H]3NC(=O)[C@H](NC(=O)[C@@H]4NC(=O)[C@H](CC(N)=O)NC(=O)[C@H](NC(=O)[C@@H](CC(C)C)NC)[C@H](O)c5ccc(c(Cl)c5)Oc5cc4cc(c5O[C@@H]4O[C@H](CO)[C@@H](O)[C@H](O)[C@H]4O[C@H]4C[C@](C)(N)[C@H](O)[C@H](C)O4)Oc4ccc(cc4Cl)[C@H]3O)c3ccc(O)c(c3)-c3c(O)cc(O)cc32)cc1.[Br-]
MIC [7]: 2 µg/mL
MIC [8]: 64 µg/mL
MIC [1]: > 128 µg/mL
MIC [2]: > 128 µg/mL
MIC [3]: 32 µg/mL
MIC [4]: 16 µg/mL

CN[C@H](CC(C)C)C(=O)N[C@H]1C(=O)N[C@@H](CC(N)=O)C(=O)N[C@H]2C(=O)N[C@H]3C(=O)N[C@H](C(=O)N[C@H](C(=O)O)c4cc(O)cc(O)c4-c4cc3ccc4O)[C@H](O)c3ccc(c(Cl)c3)Oc3cc2cc(c3O[C@@H]2O[C@H](CO)[C@@H](O)[C@H](O)[C@H]2O[C@H]2C[C@](C)(NC(=O)CCCCCCCCCCC[n+]3cccc(C(C)=O)c3)[C@H](O)[C@H](C)O2)Oc2ccc(cc2Cl)[C@H]1O.[Br-]
MIC [7]: 4 µg/mL
MIC [8]: 64 µg/mL
MIC [1]: > 128 µg/mL
MIC [2]: > 128 µg/mL
MIC [3]: > 128 µg/mL
MIC [4]: > 128 µg/mL
